Measured values taken from patent US20240358693A1, “METHODS OF TREATING PAIN” (Aisa Pharma, Inc., priority 2023, published 2024).

System: participants with SSc-RP
Assay: Scleroderma Health Assessment Questionnaire (SHAQ): disability indices and visual analog scales
Format: in vivo, human
Settings: for SHAQ Visual Analogue Scale - Overall Disease Severity, Median / SHAQ Visual Analogue Scale - Pain, Mean / SHAQ Visual Analogue Scale - Pain, Median / SHAQ Visual Analogue Scale - Raynaud's, Mean / SHAQ Visual Analogue Scale - Raynaud's, Median / SHAQ Visual Analogue Scale - Breathing Problems, Mean / SHAQ Visual Analogue Scale - Breathing Problems, Median / SHAQ Visual Analogue Scale - Finger Ulcers, Mean / SHAQ Visual Analogue Scale - Finger Ulcers, Median / SHAQ Visual Analogue Scale - Intestinal Problems, Mean / SHAQ Visual Analogue Scale - Intestinal Problems, Median / SHAQ Visual Analogue Scale - Overall Disease Severity, Mean: In-Clinic Visit (Day 12), PP Population Part A
From the text: The standard, validated, patient reported outcome measures tool for SSc patients, the Scleroderma Health Assessment Questionnaire (SHAQ), will be used to assess the participant qualify of life. Details are attached in the Appendix. The participant quality of life will be scored, and a disability index calculated for each questionnaire completed by the patient at Screening and each in-clinic visit. The absolute change in participant quality of life from baseline to the end of each dosing period will be calculated similar to frequency data as before.
The SHAQ includes a Raynaud's VAS, which will be reported at screening and each in-clinic visit. The absolute change in Raynaud-VAS, assessed by the participants response to the SHAQ question ‘In the past 7 days, how much have your Raynaud's interfered with your daily activities?’ at baseline and the end of each dosing period will be calculated similar to frequency data as before.
The SHAQ is used to calculate a Disability Index to assess the participant qualify of life. The eight categories assessed by the Disability Index are 1) dressing and grooming, 2) arising, 3) eating, 4) walking, 5) hygiene, 6) reach, 7) grip, and 8) common daily activities. For each of these categories, patients report the amount of difficulty they have in performing two or three specific activities.
There are four possible responses for the Disability Index questions: • Without any difficulty=0 • With some difficulty=1 • With much difficulty=2 • Unable to do=3. • The highest score reported by the patient for any component question of the eight categories determines the score for that category. • If a component question is left blank or the response is too ambiguous to assign a score, then the score for that category is determined by the remaining completed question(s). • If all component questions are blank or if more than one answer is given, then follow up with the respondent is required. • If the respondent's mark is between the response columns, then move it to the closest one. If it's directly between the two, move it to the higher one.
Each of the disability items on the SHAQ has a companion aids/devices variable that is used to record what type(s) of assistance, if any, the participant uses for his/her usual activities. These variables (see below) are coded as follows: • 0=No assistance is needed. • 1=A special device is used by the patient in his/her usual activities. • 2=The patient usually needs help from another person. • 3=The patient usually needs BOTH a special device AND help from another person.
The scoring variables and scoring rules permit the computation of two disability indices, the Standard Disability Index and the Alternative Disability Index.
This question results in a new set of category scores that are computed by adjusting the score for each category, if necessary, based on the patient's use of an aid or device or assistance for that category. If either devices and/or help from another person are checked for a category, the score is set to “2”, unless the score is already “3” (i.e., scores of “0” or “1” are increased to “2”). For example, if the highest score for the dressing category is “1”, and the patient says they use a device for dressing, the computed category score would be “2”. The sum of the computed categories scores is then calculated and divided by the number of categories answered. This gives a score in the 0 to 3 range.
The aid and device variables are not used to calculate the alternative disability index; it is calculated by adding the scores for each of the categories and dividing by the number of categories answered. This gives a score in the 0 to 3 range.
The standard, validated, patient reported outcome measures tool for SSc patients, the SHAQ, was collected at the time points specified in the study schedules (FIG. 2 and FIGS. 4A and 4B) to assess the participant's quality of life. The SHAQ included a Raynaud's VAS that will also be reported separately.

[1] = Pooled Cilnidipine 10 mg and Cilnidipine 10 mg + Tadalafil 5 mg (N = 9)
[2] = Pooled Cilnidipine 10 mg and Cilnidipine 10 mg + Tadalafil 5 mg (N = 9), Subject 01-110 score excluded
[3] = Pooled Cilnidipine 20 mg and Cilnidipine 20 mg + Tadalafil 5 mg (N = 8)
[4] = Modified ITT, Part A, dose Cilnidipine 10 mg, Tadalafil 5 mg, or 10 mg + 5 mg
[5] = Modified ITT, Part A, dose Cilnidipine 20 mg, or 20 mg + Tadalafil 5 mg

COCCOC(=O)C1=C(C)NC(C)=C(C(=O)OC/C=C/c2ccccc2)C1c1cccc([N+](=O)[O-])c1 (stereo not shown) [Cilnidipine, cilnidipine]
SHAQ Visual Analogue Scale - Overall Disease Severity, Median [1]: 1.900
SHAQ Visual Analogue Scale - Pain, Mean [1]: 2.644
SHAQ Visual Analogue Scale - Pain, Median [1]: 2.900
SHAQ Visual Analogue Scale - Raynaud's, Mean [1]: 2.319
SHAQ Visual Analogue Scale - Raynaud's, Median [1]: 2.600
SHAQ Visual Analogue Scale - Breathing Problems, Mean [2]: 1.375
SHAQ Visual Analogue Scale - Breathing Problems, Median [2]: 0.000
SHAQ Visual Analogue Scale - Breathing Problems, Mean [3]: 1.400
SHAQ Visual Analogue Scale - Breathing Problems, Median [3]: 0.450
SHAQ Visual Analogue Scale - Finger Ulcers, Mean [3]: 1.171
SHAQ Visual Analogue Scale - Finger Ulcers, Median [3]: 0.000
SHAQ Visual Analogue Scale - Intestinal Problems, Mean [3]: 1.013
SHAQ Visual Analogue Scale - Intestinal Problems, Median [3]: 0.100
SHAQ Visual Analogue Scale - Overall Disease Severity, Mean [3]: 1.938
SHAQ Visual Analogue Scale - Overall Disease Severity, Median [3]: 1.300
SHAQ Visual Analogue Scale - Pain, Mean [3]: 2.288
SHAQ Visual Analogue Scale - Pain, Median [3]: 2.100
SHAQ Visual Analogue Scale - Raynaud's, Mean [3]: 1.688
SHAQ Visual Analogue Scale - Raynaud's, Median [3]: 0.850
SHAQ Visual Analogue Scale - Breathing Problems, Mean (Pooled Cilnidipine (N = 8)): 1.213
SHAQ Visual Analogue Scale - Breathing Problems, Median (Pooled Cilnidipine (N = 8)): 0.200
SHAQ Visual Analogue Scale - Finger Ulcers, Mean (Pooled Cilnidipine (N = 8)): 0.463
SHAQ Visual Analogue Scale - Finger Ulcers, Median (Pooled Cilnidipine (N = 8)): 0.000
SHAQ Visual Analogue Scale - Intestinal Problems, Mean (Pooled Cilnidipine (N = 8)): 0.975
SHAQ Visual Analogue Scale - Intestinal Problems, Median (Pooled Cilnidipine (N = 8)): 0.300
SHAQ Visual Analogue Scale - Overall Disease Severity, Mean (Pooled Cilnidipine (N = 8)): 1.475
SHAQ Visual Analogue Scale - Overall Disease Severity, Median (Pooled Cilnidipine (N = 8)): 1.300
SHAQ Visual Analogue Scale - Pain, Mean (Pooled Cilnidipine (N = 8)): 1.875
SHAQ Visual Analogue Scale - Pain, Median (Pooled Cilnidipine (N = 8)): 1.550
SHAQ Visual Analogue Scale - Raynaud's, Mean (Pooled Cilnidipine (N = 8)): 1.900
SHAQ Visual Analogue Scale - Raynaud's, Median (Pooled Cilnidipine (N = 8)): 1.250
SHAQ Finger Ulcers, Baseline, Mean [4]: 0.700
SHAQ Finger Ulcers, Baseline, Median [4]: 0.500
SHAQ Finger Ulcers, In Clinic Visit (Day 12), Mean [4]: 0.275
SHAQ Finger Ulcers, In Clinic Visit (Day 12), Median [4]: 0.000
SHAQ Standard disability index, Baseline, Mean [4]: 0.656
SHAQ Standard disability index, Baseline, Median [4]: 0.563
SHAQ Standard disability index, In Clinic Visit (Day 12), Mean [4]: 0.656
SHAQ Standard disability index, In Clinic Visit (Day 12), Median [4]: 0.563
SHAQ Visual Analog Scale-Breathing Problems, Baseline, Mean [4]: 1.875
SHAQ Visual Analog Scale-Breathing Problems, Baseline, Median [4]: 0.000
SHAQ Visual Analog Scale-Breathing Problems, In Clinic Visit (Day 12), Mean [4]: 1.575
SHAQ Visual Analog Scale-Breathing Problems, In Clinic Visit (Day 12), Median [4]: 0.000
SHAQ Visual Analog Scale-Intestinal Problems, Baseline, Mean [4]: 2.975
SHAQ Visual Analog Scale-Intestinal Problems, Baseline, Median [4]: 2.550
SHAQ Visual Analog Scale-Intestinal Problems, In Clinic Visit (Day 12), Mean [4]: 1.100
SHAQ Visual Analog Scale-Intestinal Problems, In Clinic Visit (Day 12), Median [4]: 0.300
SHAQ Visual Analog Scale-Pain, Baseline, Mean [4]: 1.975
SHAQ Visual Analog Scale-Pain, Baseline, Median [4]: 2.150
SHAQ Visual Analog Scale-Pain, In Clinic Visit (Day 12), Mean [4]: 1.875
SHAQ Visual Analog Scale-Pain, In Clinic Visit (Day 12), Median [4]: 1.950
SHAQ Visual Analog Scale-Raynaud's, Baseline, Mean [4]: 1.600
SHAQ Visual Analog Scale-Raynaud's, Baseline, Median [4]: 1.000
SHAQ Visual Analog Scale-Raynaud's, In Clinic Visit (Day 12), Mean [4]: 1.925
SHAQ Visual Analog Scale-Raynaud's, In Clinic Visit (Day 12), Median [4]: 1.700
SHAQ alternative disability index, Baseline, Mean [4]: 0.500
SHAQ alternative disability index, Baseline, Median [4]: 0.438
SHAQ alternative disability index, In Clinic Visit (Day 12), Mean [4]: 0.563
SHAQ alternative disability index, In Clinic Visit (Day 12), Median [4]: 0.500
SHAQ Finger Ulcers, Baseline, Mean [5]: 1.800
SHAQ Finger Ulcers, Baseline, Median [5]: 0.300
